{"source": "patent US6421455B1", "about": "“Method for detecting cancer on skin of humans and mammals and arrangement for performing the method” (Medeikonos AB, priority 1996, dated 2002)", "key": {"[1]": {"system": "skin cancer (tumours) on skin", "assay": "Imaging fluorescence spectroscopy of skin after topical ALA application", "format": "in vivo, human", "details": "exciting light about 0,5 mW/cm^2, exposing time 2 s", "experimental": "(§1) The method according to the invention is carried out in the way that first a water-in-oil emulsion or an oil-in-water emulsion is prepared form a compound called delta amino levulinic acid (ALA) having an ALA concentration of 5-25%. […] This agent which has the formula I is normally produced in the body in the […] and is a building stone for the haemoglobin. [drawing 1]"}, "[2]": {"assay": "Solubility of ALA in water", "format": "physicochemical", "details": "ALA in the form of powder", "experimental": "as §1"}}, "data": [{"compound": "NCC(=O)CCC(=O)O", "note": "[ALA, delta amino levulinic acid]", "values": [{"measurement": "average fluorescence level within area B (ALA-treated skin without detected tumours) relative to area A (untreated skin, skin auto fluorescence)", "setting": "[1]; FIG. 1, back of a person", "value": "1,9 ×"}, {"measurement": "fluorescence intensity of white-contoured areas (tumours, areas 1-4) relative to skin auto fluorescence", "setting": "[1]; FIG. 1, back of a person", "value": "2,75 ×"}, {"measurement": "average fluorescence level in area B (ALA-treated skin without detected tumours) relative to area A (untreated skin, skin auto fluorescence)", "setting": "[1]; FIG. 2, breast of a person", "value": "2,0 ×"}, {"measurement": "fluorescence intensity of white-contoured areas (tumour, area 7) relative to skin auto fluorescence", "setting": "[1]; FIG. 2, breast of a person", "value": "> 2,75 ×"}, {"measurement": "solubility in water", "setting": "[2]", "value": "easily solved in water"}]}]}
